According to patent US7687472B2, “Methods and compositions for treating hyperglycemic, hyperlipidemic, or hyperinsulinemic disorders” (Ohio University, priority 2004, dated 2010):

Assays:
Glut4 = Glut4 translocation by immunostaining and confocal microscopy in 3T3-L1 adipocytes; type: cell-based; details: FIG. 3
Procedure: (§1) FIG. 3 illustrates induced Glut4 translocation. 3T3-L1 adipocytes were either uninduced, or induced by 1 μM insulin, or 30 μM 6Cl-α-TGQ. The treated cells were immunostained with an anti-Glut4 antibody followed with the secondary antibody (Fluorescein (FITC)-conjugated affinipure F(ad′)2 fragment Donkey anti-Mouse IgG). The cells were then mounted for microscopic visualization. The immunostained cells were visualized with a Zeiss LSM510 confocal microscope at wavelength of 488 nm for excitation and 520 nm for emission.
as §1, with “The” for “FIG. 3 illustrates induced Glut4 translocation. 3T3-L1 adipocytes were either uninduced, or induced by 1 μM insulin, or 30 μM 6Cl-α-TGQ. The”

Akt = Akt phosphorylation by Western blot in CHO-IR cells and 3T3-L1 adipocytes; type: cell-based; details: CHO-IR cells or 3T3-L1 adipocytes; anti-phosphorylated Akt antibody
Procedure: (§2) FIG. 6 illustrates that novel TGQ compounds stimulate IR and Akt phosphorylation in CHO-IR cells and Akt phosphorylation in 3T3-L1 fat cells. CHO-IR cells or 3T3-L1 adipocytes were induced under conditions as shown. Total protein was isolated from the cells and subjected SDS-PAGE and subsequently transferred to a […] membrane. The proteins on the membrane were detected by anti-phosphorylated IR or Akt antibodies. […] Thirty to 60 μg of total protein and the biotinylated protein marker was mixed with SDS sample buffer and heated at 95-100° C. for 5 minutes. Then, each sample and a marker were subjected to 8% SDS POLYACRYLAMIDE GEL ELECTROPHORESIS (SDS-PAGE). After electrophoresis, the proteins on the gel were transferred to a nitrocellulose. The nitrocellulose membrane was blocked, and then incubated with the desired primary antibody (specifically against either phosphorylated form of IR or Akt) overnight at 4° C. with gentle agitation. After overnight incubation, the membrane was washed, and then incubated with the HRP-conjugated secondary antibody for 1 hour at room temperature. Then, the membrane was washed, the proteins on the membrane were detected by a Western blotting LumiGLO system (Cell Signaling Tech, Inc) and finally visualized by exposing the membrane to an x-ray film in a cassette for a proper time, usually from 1 to 10 minutes.

IR = IR phosphorylation by Western blot in CHO-IR cells; type: cell-based; details: anti-phosphorylated IR antibody
Procedure: as §2

3T3-L1 preadipocytes [1] = details: α-PGG used at 20 μM with MDI; cited from earlier work
3T3-L1 adipocytes = assay: Glucose uptake ([3H] 2-deoxy-D-glucose) assay in 3T3-L1 adipocytes; type: cell-based; details: for glucose transport inducing activity compared with α-PGG: α-PGG 30 μM
Procedure: Glucose uptake activity in cells may be analyzed by measuring the uptake of 2-deoxy-D-[3H] glucose using a standard assay. Confluent 3T3-L1 adipocytes grown in 12-well plates are washed twice with serum-free DMEM and incubated with 1 mL of the same medium at 37° C. for 2 h. The cells are washed 3 times with Krebs-Ringer-Hepes (KRP) buffer and incubated with 0.9 mL KRP buffer at 37° C. for 30 min. Insulin (positive control) or the compounds of Formula I, II, or III (experimentals) are then added at pre-determined concentrations and adipocytes are incubated at 37° C. for 15 min. Glucose uptake is initiated by addition of 0.1 mL KRP buffer and 37 MBq/L 2-deoxy-D-[^3H] glucose and 1 mmol/L glucose as final concentrations. After 10 min, glucose uptake is terminated by washing the cells 3 times with cold PBS. The cells are lysed with 0.7 mL of 1% Triton X-100 at 37° C. for 20 min. The radioactivity retained by the cell lysates is determined by a scintillation counter. The dosage that induces the maximal glucose uptake can be selected among the experimental samples.
6Cl-α-TGQ and 6Cl-β-TGQ were synthesized as described above. α-TGQ was synthesized using methods analogous to the preparation of 6Cl-α-TGQ (Examples 1 and 2) starting from commercially available 6-deoxy-D-glucose. Alpha-pentagalloylglucose (α-PGG) was obtained. 3T3-L1 preadipocytes grown in 24-well plates were induced by MDI until they were differentiated into adipocytes. Adipocytes were washed twice with serum-free DMEM and incubated with 0.5 ml of the same medium in 10% C02 at 37 ° C. for 2 hours. The cells were washed 3 times with Kerbs-Ringer-HEPES (KRP) buffer (136 mM NaCl, 4.7 mM KCl, 1.25 mM CaCl2, 1.25 mM MgSO4 and 10 mM sodium phosphate buffer at pH 7.4) and then incubated with 0.45 ml KRP buffer at 37 ° C. for 30 minutes. Glucose transport inducing agents were individually added to the cells at predetermined concentrations and each condition was duplicated or triplicated, then the adipocytes were incubated at 37 ° C. for 15 minutes. Glucose uptake was initiated by the addition of 0.1 ml of KPR buffer supplemented with 1 μCi/ml [^3H] 2-deoxy-D-glucose and 1 mM cold glucose as the final concentration to the cells. After 10 min, the medium was aspirated and the plates were washed with ice-cold PBS three times to terminate the induced glucose uptake. The cells were lysed with 0.45 ml of 1% triton X-100 at 37 ° C. for 20 min. The radioactivity taken up by the cells was determined in a solution of 0.4 ml of the cell lysates and 5 ml of scintillation liquid using a scintillation counter (Beckman Instruments).
6Br-α-TGQ and 6Br-β-TGQ were chemically synthesized using a preparation analogous to the preparation of 6Cl-TGQ (Examples 1, 2 and 3) starting from commercially available 6-bromo-D-glucose. 6Cl-α-TGQ was synthesized as described above. Alpha-pentagalloylglucose (α-PGG) was obtained. Confluent 3T3-L1 adipocytes were purchased from ATCC and grown in 12-well plates are washed twice with serum-free DMEM and incubated with 1 mL of the same medium at 37° C. for 2 h. The cells are washed 3 times with Krebs-Ringer-Hepes (KRP) buffer and incubated with 0.9 mL KRP buffer at 37° C. for 30 min.
Glucose uptake was initiated by addition of 0.1 mL KRP buffer and 37 MBq/L 2-deoxy-D-[^3H] glucose and 1 mmol/L glucose as final concentrations, and the ^3H labeled glucose was then added to the cells for 15 min. […] The radioactivity retained by the cell lysates was determined by a scintillation counter. […]

3T3-L1 preadipocytes [2] = assay: MDI-induced differentiation of 3T3-L1 preadipocytes into adipocytes, measured by glucose uptake; type: cell-based; details: MDI plus 20 μM compound; ten days after induction; FIG. 4
Procedure: FIG. 4 illustrates adipocyte differentiation induced by MDI. […] Ten days after the induction, cells were assayed for their respective ability to take up glucose from the media by a radioactive glucose uptake assay. Each sample (condition) was in triplicate. The concept that adipocyte differentiation can be indirectly measured by glucose uptake was based on the observation that only differentiated adipocytes can take up glucose through a Glut4-mediated pathway while undifferentiated preadipocytes cannot.
To determine the effective concentration of the compounds of Formula I, II, or III to use in preventing adipogenesis in vitro, undifferentiated preadipocytes are incubated either with a differentiation-induction cocktail, comprised of 3-isobutyl-1-methylxanthine, dexamethasone, and insulin (MDI); or with MDI plus the test compound. After about 10 days MDI induces differentiation, which is clearly visible as the change from fibroblast-like preadipocytes to round-shaped, fat vesicle-containing adipocytes. […]
Ten days after the induction, cells were assayed for their respective ability to take up glucose from the media by a standard radioactive glucose uptake assay. […] The adipocyte differentiation can be measured by glucose uptake because only differentiated adipocyte can take up glucose through Glut4-mediated pathway while undifferentiated preadipocytes cannot.

6-chloro-1,2,3,4-tetragalloyl-D-quinovopyranose [6Cl-TGQ]
Glut4 translocation to the cell membrane (Glut4; 30 μM compound): induced Glut4 translocation to the cell membrane
Akt phosphorylation (Akt): can induce IR and Akt phosphorylation
IR phosphorylation (IR): can induce IR and Akt phosphorylation

insulin: the hormone which regulates glucose utilization; positive control
Glut4 translocation to the cell membrane (Glut4; 1 μM insulin): induced Glut4 translocation to the cell membrane

O=C(OC[C@H]1O[C@H](OC(=O)c2cc(O)c(O)c(O)c2)[C@H](OC(=O)c2cc(O)c(O)c(O)c2)[C@@H](OC(=O)c2cc(O)c(O)c(O)c2)[C@@H]1OC(=O)c1cc(O)c(O)c(O)c1)c1cc(O)c(O)c(O)c1 [α-PGG, pentagalloyl-α-D-glucopyranose]
inhibition of adipocyte differentiation (known) (3T3-L1 preadipocytes [1]): known to inhibit the differentiation

O=C(O[C@H]1O[C@H](CCl)[C@@H](OC(=O)c2cc(O)c(O)c(O)c2)[C@H](OC(=O)c2cc(O)c(O)c(O)c2)[C@H]1OC(=O)c1cc(O)c(O)c(O)c1)c1cc(O)c(O)c(O)c1 [6Cl-α-TGQ, 6-chloro-α-1,2,3,4-tetragallolyl-D-quinovopyranose]
more glucose transported than the insulin controls (3T3-L1 adipocytes; 30 μM compound, insulin control 1 μM, FIG. 2): 10%
glucose transport activity compared with insulin (3T3-L1 adipocytes; insulin 1 μM, FIG. 2): as active as insulin
glucose transport inducing activity compared with α-PGG (3T3-L1 adipocytes; FIG. 2): more active than pentagalloyl-α-D-glucopyranose (α-PGG)
glucose transport inducing activity compared with α-PGG (3T3-L1 adipocytes; FIG. 2, listed as 6Cl-α: TGQ): more active than α-PGG
Glut4 translocation to the cell membrane (Glut4; 30 μM compound): induced Glut4 translocation to the cell membrane
inhibition of adipocyte differentiation (3T3-L1 preadipocytes [2]): inhibit adipocyte differentiation

CC1OC(OC(=O)c2cc(O)c(O)c(O)c2)C(OC(=O)c2cc(O)c(O)c(O)c2)C(OC(=O)c2cc(O)c(O)c(O)c2)C1OC(=O)c1cc(O)c(O)c(O)c1 (stereo not drawn) [α-TGQ]
glucose transport stimulatory activity (3T3-L1 adipocytes; various concentrations): active

6-chloro-1,2,3,4-tetragalloyl-D-quinovopyranose [6Cl-β-TGQ]
inhibition of adipocyte differentiation (3T3-L1 preadipocytes [2]): inhibit adipocyte differentiation
